The source of these data is PMC6270616, “Antidiabetic and Antioxidant Properties of Alkaloids from Catharanthus roseus (L.) G. Don” (Molecules, 2013).

The assay addresses T1, protein tyrosine phosphatase-1B (PTP-1B) (Homo sapiens, UniProt P18031).
T1 construct: gene PTPN1; recombinant PTP-1B
T1 sequence (P18031 1-435): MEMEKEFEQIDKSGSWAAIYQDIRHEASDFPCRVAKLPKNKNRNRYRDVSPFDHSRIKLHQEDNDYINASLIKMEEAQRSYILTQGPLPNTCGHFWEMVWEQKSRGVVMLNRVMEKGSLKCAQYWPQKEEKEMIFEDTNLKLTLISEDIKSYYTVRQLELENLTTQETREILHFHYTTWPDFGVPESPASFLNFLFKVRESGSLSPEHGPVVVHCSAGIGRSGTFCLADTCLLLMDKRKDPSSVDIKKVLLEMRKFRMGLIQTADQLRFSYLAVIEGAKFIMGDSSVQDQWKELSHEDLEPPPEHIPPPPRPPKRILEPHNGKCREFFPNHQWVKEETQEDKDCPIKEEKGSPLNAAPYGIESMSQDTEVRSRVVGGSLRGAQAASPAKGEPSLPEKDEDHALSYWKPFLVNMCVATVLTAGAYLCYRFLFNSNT
As to the kind of experiment: pNPP phosphatase assay with recombinant enzyme, absorbance at […] nm. In kind it is biochemical.

As for `COC(=O)[C@@H]1C[C@@]23C=CCN4CC[C@@]5(c6ccccc6N[C@]15[C@@H]2C)[C@@H]43` [IV, vindolinine], the “pNPP phosphatase assay with recombinant enzyme, absorbance at 405 nm” value is reported as “compounds II–IV demonstrated good protein tyrosine phosphatase-1B (PTP-1B) inhibition activity”.
